According to patent US20080152765A1, “Coated Granular Formulations” (priority 2005, published 2008):
“And” between values parts separate entries of the source, which are not always exact repeats. Equal entries are not always repeated. Each block holds one molecule with its values, some of them ahead of it.

What was measured:
Assay type in all cases: physicochemical
[1] = Hygroscopicity of starting material SAMe, exposure at 75% RH and 20° C.; conditions: for weight (increase in weight relative to time zero): T = 0 2.00 g
Protocol: The hygroscopicity of the starting material SAMe (s.m.) was determined as increase in weight, relative to the time zero, the relative content being given in p.a.: […]

[2] = Stability of the protected SAMe product relative to the starting material, 5 days at 53° C.
[3] = Increase of hygroscopicity in % by weight, SAMe, 75% RH 40° C.
[4] = Hygroscopicity and photosensitivity of starting material NADH, exposure to light, RH 75%, 20° C.; conditions: for weight (increase in weight relative to time zero): T = 0 2.00 g
Protocol: The hygroscopicity and photosensitivity of the starting material NADH (s.m.) was determined as increase in weight, relative to time zero, the relative content being given in p.a.: […]

[5] = Stability of the protected NADH product relative to the starting material, 5 days at 53° C.
[6] = 5 days at 53° C., listed as s.m.
[7] = 1 day exposure to light, RH 75%, 20° C.
[8] = 2 days exposure to light, RH 75%, 20° C.
[9] = 3 days exposure to light, RH 75%, 20° C.
[10] = 4 days exposure to light, RH 75%, 20° C.

hygroscopicity and stability, in words ([1]; 75% RH and 20° C., 4 days): high hygroscopicity and high instability
% MTA ([1]; 1 day at 75% RH and 20° C.): 1.5%
% adenine + adenosine ([1]; 1 day at 75% RH and 20° C.): 1.3%
% ionic SAMe ([1]; 1 day at 75% RH and 20° C.): 51.1%
% water (KF) ([1]; 1 day at 75% RH and 20° C.): 2.1%
weight (increase in weight relative to time zero) ([1]; 1 day at 75% RH and 20° C.): 2.40 g
% MTA ([1]; 2 days at 75% RH and 20° C.): 1.9%
% adenine + adenosine ([1]; 2 days at 75% RH and 20° C.): 2.4%
% ionic SAMe ([1]; 2 days at 75% RH and 20° C.): 50.3%
% water (KF) ([1]; 2 days at 75% RH and 20° C.): 2.9%
weight (increase in weight relative to time zero) ([1]; 2 days at 75% RH and 20° C.): 2.90 g
% MTA ([1]; 3 days at 75% RH and 20° C.): 2.4%
% adenine + adenosine ([1]; 3 days at 75% RH and 20° C.): 2.9%
% ionic SAMe ([1]; 3 days at 75% RH and 20° C.): 47.3%
% water (KF) ([1]; 3 days at 75% RH and 20° C.): 3.4%
weight (increase in weight relative to time zero) ([1]; 3 days at 75% RH and 20° C.): 3.50 g
% MTA ([1]; 4 days at 75% RH and 20° C.): 3.0%
% adenine + adenosine ([1]; 4 days at 75% RH and 20° C.): 3.2%
% ionic SAMe ([1]; 4 days at 75% RH and 20° C.): 45.1%
% water (KF) ([1]; 4 days at 75% RH and 20° C.): 3.8%
weight (increase in weight relative to time zero) ([1]; 4 days at 75% RH and 20° C.): 4.50 g
% MTA ([1]; T(0)): T(0) = 0.6%
% adenine + adenosine ([1]; T(0)): T(0) = 0.4%
% ionic SAMe ([1]; T(0)): T(0) = 52.1%
% water (KF) ([1]; T(0)): T(0) = 1.5%
% water (KF) ([2]; 5 days at 53° C.): 1.5%
% Ionic SAMe content [2, 6]: 48.5% and 47.3%
% MTA [2, 6]: 3.45% and 3.87%
% adenine + adenosine [2, 6]: 3.35% and 3.54%
% Ionic SAMe content ([2]; T = 0, listed as s.m): 52.4%
% MTA ([2]; T = 0, listed as s.m): 0.3%
% adenine + adenosine ([2]; T = 0, listed as s.m): 0.6%
% water (KF) ([2]; T = 0, listed as s.m): 1.6%
% Ionic SAMe content ([2]; T = 0, listed as s.m.): 52.1%
% MTA ([2]; T = 0, listed as s.m.): 0.6%
% adenine + adenosine ([2]; T = 0, listed as s.m.): 0.4%
% water (KF) ([2]; T = 0, listed as s.m.): 1.5%
Increase of hygroscopicity in % by weight ([3]; 1 day at 75% RH and 40° C.): 50%
Increase of hygroscopicity in % by weight ([3]; T = 0): 0.00 % by weight
SMILES: C[S+](CC[C@H](N)C(=O)O)C[C@H]1O[C@@H](n2cnc3c(N)ncnc32)[C@H](O)[C@@H]1O (stereo partly shown) [SAMe, S-adenosylmethionine]

NAD+ impurity [4, 7]: 1.21%
NADH content [4, 7]: 97.9%
Water (KF) [4, 7]: 1.82%
weight (increase in weight relative to time zero) [4, 7]: 2.20 g
NAD+ impurity [4, 8]: 1.55%
NADH content [4, 8]: 97.3%
Water (KF) [4, 8]: 1.91%
weight (increase in weight relative to time zero) [4, 8]: 2.40 g
NAD+ impurity [4, 9]: 2.89%
NADH content [4, 9]: 96.0%
Water (KF) [4, 9]: 2.44%
weight (increase in weight relative to time zero) [4, 9]: 2.50 g
NAD+ impurity [4, 10]: 3.45%
NADH content [4, 10]: 95.5%
Water (KF) [4, 10]: 2.86%
weight (increase in weight relative to time zero) [4, 10]: 2.80 g
NAD+ impurity ([4]; T = 0): 0.55%
NADH content ([4]; T = 0): 98.4%
Water (KF) ([4]; T = 0): 1.2%
% NAD+ content ([5]; 5 days at 53° C.): 2.3%
% NADH content ([5]; 5 days at 53° C.): 98.4%
% water (KF) ([5]; 5 days at 53° C.): 1.5%
% NAD+ content ([5]; T = 0): 0.5%
% NADH content ([5]; T = 0): 100.1%
% water (KF) ([5]; T = 0): 1.3%
SMILES: NC(=O)C1=CN([C@@H]2O[C@H](COP(=O)(O)OP(=O)(O)OC[C@H]3O[C@@H](n4cnc5c(N)ncnc54)[C@H](O)[C@@H]3O)[C@@H](O)[C@H]2O)C=CC1 [NADH]
